Values quoted from earlier work, collected in patent US9040545B2, “Heterocyclyl pyrazolopyrimidine analogues as selective JAK inhibitors” (Cellzome Limited, priority 2010, dated 2015).

How the values were obtained:
[1] = literature; cited from earlier work
[2] = literature; cited from earlier work; remark: listed apart in the source
[3] = NOD mouse, literature; cited from earlier work

For `C[C@@H]1CCN(C(=O)CC#N)C[C@@H]1N(C)c1ncnc2[nH]ccc12` [CP-690,550], which “efficacy in an animal model of organ transplantation” value [1] is on record?
Its value is “efficacy”.

With `COc1cc2ncnc(Nc3ccc(O)cc3)c2cc1OC` [JANEX-1] as the molecule, how does the “severity of GVHD” value [2] read?
Its value is “attenuate the severity of GVHD”.

And the “spontaneous autoimmune diabetes development” value [3]?
Its value is “prevent spontaneous autoimmune diabetes development”.
